# Measurements from PubChem BioAssay (NCI).
#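 GI50: concentration for 50% inhibition of growth. TGI is the concentration that stops growth completely.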
# Key:
# Test in all cases: growth of human tumour cells (NCI), 384-well format
# OVCAR-3 ovarian = tested on: OVCAR-3 ovarian
# MDA-MB-435 melanoma = tested on: MDA-MB-435 melanoma
# BT-549 breast = tested on: BT-549 breast
# UO-31 renal = tested on: UO-31 renal
# SN12C renal = tested on: SN12C renal
# NCI-H460 NSCLC = tested on: NCI-H460 NSCLC
# U251 glioblastoma = tested on: U251 glioblastoma
# MDA-MB-468 breast = tested on: MDA-MB-468 breast
# NCI-H226 lung = tested on: NCI-H226 lung
# IGROV1 ovarian = tested on: IGROV1 ovarian
# HT29 colon = tested on: HT29 colon
# MALME-3M melanoma = tested on: MALME-3M melanoma
# OVCAR-5 ovarian = tested on: OVCAR-5 ovarian
# CAKI-1 renal = tested on: CAKI-1 renal
# SK-OV-3 ovarian = tested on: SK-OV-3 ovarian
# SW-620 colon = tested on: SW-620 colon
# SF-295 CNS = tested on: SF-295 CNS
# KM12 colon = tested on: KM12 colon
# A549 NSCLC = tested on: A549 NSCLC
# SK-MEL-5 melanoma = tested on: SK-MEL-5 melanoma
# NCI-H322M lung = tested on: NCI-H322M lung
# SF-539 CNS = tested on: SF-539 CNS
# RXF 393 renal = tested on: RXF 393 renal
# MOLT-4 leukemia = tested on: MOLT-4 leukemia
# CCRF-CEM leukemia = tested on: CCRF-CEM leukemia
# NCI/ADR-RES ovarian = tested on: NCI/ADR-RES ovarian
# SNB-75 CNS = tested on: SNB-75 CNS
# RPMI-8226 leukemia = tested on: RPMI-8226 leukemia
# EKVX NSCLC = tested on: EKVX NSCLC
# MDA-MB-231 breast = tested on: MDA-MB-231 breast
# HOP-62 NSCLC = tested on: HOP-62 NSCLC
# PC-3 prostate = tested on: PC-3 prostate
# HS 578T breast = tested on: HS 578T breast
# LOX IMVI melanoma = tested on: LOX IMVI melanoma
# 786-0 renal = tested on: 786-0 renal
# COLO 205 colon = tested on: COLO 205 colon
# A498 renal = tested on: A498 renal
# DU-145 prostate = tested on: DU-145 prostate
# HCT-15 colon = tested on: HCT-15 colon
# UACC-257 melanoma = tested on: UACC-257 melanoma
# OVCAR-4 ovarian = tested on: OVCAR-4 ovarian
# TK-10 renal = tested on: TK-10 renal
# SK-MEL-2 melanoma = tested on: SK-MEL-2 melanoma
# HCT-116 colon = tested on: HCT-116 colon
# HL-60(TB) leukemia = tested on: HL-60(TB) leukemia
# UACC-62 melanoma = tested on: UACC-62 melanoma
# SNB-19 CNS = tested on: SNB-19 CNS
# T-47D breast = tested on: T-47D breast
# K-562 leukemia = tested on: K-562 leukemia
# SK-MEL-28 melanoma = tested on: SK-MEL-28 melanoma
# SF-268 CNS = tested on: SF-268 CNS
# NCI-H522 lung = tested on: NCI-H522 lung
smiles,measurement,setting,value
CC[C@H](CO)Nc1nc(NCc2ccccc2)c2ncn(C(C)C)c2n1,GI50,OVCAR-3 ovarian,17.2 µM
same,TGI,OVCAR-3 ovarian,43.9 µM
same,GI50,MDA-MB-435 melanoma,23.2 µM
same,TGI,MDA-MB-435 melanoma,64.6 µM
same,GI50,BT-549 breast,15.9 µM
same,TGI,BT-549 breast,33.6 µM
same,GI50,UO-31 renal,20.9 µM
same,TGI,UO-31 renal,45 µM
same,GI50,SN12C renal,21.1 µM
same,TGI,SN12C renal,52.1 µM
same,GI50,NCI-H460 NSCLC,16.2 µM
same,TGI,NCI-H460 NSCLC,31.8 µM
same,GI50,U251 glioblastoma,28.2 µM
same,TGI,U251 glioblastoma,> 100 µM
same,GI50,MDA-MB-468 breast,19.8 µM
same,TGI,MDA-MB-468 breast,37.9 µM
same,GI50,NCI-H226 lung,22.4 µM
same,TGI,NCI-H226 lung,68.3 µM
same,GI50,IGROV1 ovarian,26.5 µM
same,TGI,IGROV1 ovarian,95.8 µM
same,GI50,HT29 colon,20.1 µM
same,TGI,HT29 colon,47.2 µM
same,GI50,MALME-3M melanoma,24.8 µM
same,TGI,MALME-3M melanoma,57.8 µM
same,GI50,OVCAR-5 ovarian,24.8 µM
same,TGI,OVCAR-5 ovarian,> 100 µM
same,GI50,CAKI-1 renal,24 µM
same,TGI,CAKI-1 renal,77.4 µM
same,GI50,SK-OV-3 ovarian,36.5 µM
same,TGI,SK-OV-3 ovarian,> 100 µM
same,GI50,SW-620 colon,29.5 µM
same,TGI,SW-620 colon,89.9 µM
same,GI50,SF-295 CNS,25.2 µM
same,TGI,SF-295 CNS,78.6 µM
same,GI50,KM12 colon,18.8 µM
same,TGI,KM12 colon,43.6 µM
same,GI50,A549 NSCLC,27.5 µM
same,TGI,A549 NSCLC,> 100 µM
same,GI50,SK-MEL-5 melanoma,15.4 µM
same,TGI,SK-MEL-5 melanoma,31.8 µM
same,GI50,NCI-H322M lung,19.1 µM
same,TGI,NCI-H322M lung,49.9 µM
same,GI50,SF-539 CNS,19.1 µM
same,TGI,SF-539 CNS,40.3 µM
same,GI50,RXF 393 renal,14.1 µM
same,TGI,RXF 393 renal,28.2 µM
same,GI50,MOLT-4 leukemia,17.3 µM
same,TGI,MOLT-4 leukemia,32.1 µM
same,GI50,CCRF-CEM leukemia,16.8 µM
same,TGI,CCRF-CEM leukemia,33.3 µM
same,GI50,NCI/ADR-RES ovarian,22.3 µM
same,TGI,NCI/ADR-RES ovarian,75.2 µM
same,GI50,SNB-75 CNS,16.6 µM
same,TGI,SNB-75 CNS,35.4 µM
same,GI50,RPMI-8226 leukemia,17 µM
same,TGI,RPMI-8226 leukemia,31.6 µM
same,GI50,EKVX NSCLC,23 µM
same,TGI,EKVX NSCLC,59.6 µM
same,GI50,MDA-MB-231 breast,22.4 µM
same,TGI,MDA-MB-231 breast,62.9 µM
same,GI50,HOP-62 NSCLC,21.8 µM
same,TGI,HOP-62 NSCLC,62.2 µM
same,GI50,PC-3 prostate,21 µM
same,TGI,PC-3 prostate,56.1 µM
same,GI50,HS 578T breast,15.2 µM
same,TGI,HS 578T breast,32.3 µM
same,GI50,LOX IMVI melanoma,19.3 µM
same,TGI,LOX IMVI melanoma,37.5 µM
same,GI50,786-0 renal,22.7 µM
same,TGI,786-0 renal,61.5 µM
same,GI50,COLO 205 colon,21.3 µM
same,TGI,COLO 205 colon,52.8 µM
same,GI50,A498 renal,27.2 µM
same,TGI,A498 renal,82.1 µM
same,GI50,DU-145 prostate,20.9 µM
same,TGI,DU-145 prostate,56.3 µM
same,GI50,HCT-15 colon,19.4 µM
same,TGI,HCT-15 colon,60.3 µM
same,GI50,UACC-257 melanoma,21.2 µM
same,TGI,UACC-257 melanoma,59.5 µM
same,GI50,OVCAR-4 ovarian,32 µM
same,TGI,OVCAR-4 ovarian,> 100 µM
same,GI50,TK-10 renal,25 µM
same,TGI,TK-10 renal,83.6 µM
same,GI50,SK-MEL-2 melanoma,36.7 µM
same,TGI,SK-MEL-2 melanoma,63.6 µM
same,GI50,HCT-116 colon,16.4 µM
same,TGI,HCT-116 colon,35.3 µM
same,GI50,HL-60(TB) leukemia,14.8 µM
same,TGI,HL-60(TB) leukemia,28.1 µM
same,GI50,UACC-62 melanoma,13.7 µM
same,TGI,UACC-62 melanoma,27.3 µM
same,GI50,SNB-19 CNS,26.8 µM
same,TGI,SNB-19 CNS,> 100 µM
same,GI50,T-47D breast,24.9 µM
same,TGI,T-47D breast,76.1 µM
same,GI50,K-562 leukemia,36.1 µM
same,TGI,K-562 leukemia,> 100 µM
same,GI50,SK-MEL-28 melanoma,16.3 µM
same,TGI,SK-MEL-28 melanoma,36.4 µM
same,GI50,SF-268 CNS,15.3 µM
same,TGI,SF-268 CNS,35.6 µM
same,GI50,NCI-H522 lung,18.3 µM
same,TGI,NCI-H522 lung,50.6 µM
